In patent publication US20240081300A1, “ADRENERGIC MECHANISMS OF AUDIOGENIC SEIZURE-INDUCED DEATH IN MOUSE MODEL OF SCN8A ENCEPHALOPATHY” (University of Virginia Patent Foundation, priority 2021, published 2024):
Entries after “also recorded” stand apart in the source; their conditions may differ.

Columns and labels:
[1] = system: P20-21 D/+ mice (Scn8a N1768D); assay: Audiogenic seizure-induced death in P20-21 D/+ mice (adrenergic agonists, adrenergic blockade with mechanical ventilation); type: in vivo, mouse; conditions: for postictal breathing recovery (plethysmography): 3 mg/kg phenylephrine i.p. 1 minute prior
Description: (§1) Audiogenic seizure assessment. To test for audiogenic seizures mice were taken from their home cage and transferred to a clean test cage where they were allowed to acclimate for ˜20 seconds before the onset of the acoustic stimulus. Similar to a method described previously (Martin et al., 2020), a sonicator (Branson 200 ultrasonic cleaner) was used to produce the audiogenic stimulus directly adjacent to the test cage.
(§2) Audiogenic seizures were recorded using a laptop webcam. Duration of seizure phases were analyzed by taking the time in seconds that the mouse spent in each of the phases: a wild-running phase characterized by fast circular running throughout the cage, a tonic phase characterized by hindlimb extension and muscle rigidity, a clonic phase typified by myoclonic jerking of the hindlimbs, and recovery exemplified when the mouse ceased myoclonic jerking and righted itself. In cases where death occurred, the end of the tonic phase was apparent at the point of hindlimb muscle relaxation.
(§3) For recording of only breathing in pharmacological experiments, non-implanted mice were placed in the chambers immediately after injection of pharmacological agents. Stimulation of audiogenic seizures and recording of breathing were performed as described above.
Mechanical ventilation. For the mechanical ventilation of P20-21 D/+ mice during an audiogenic seizure, we quickly placed a custom-made 3 mL pipet which fit snuggly over the mouse's nose and mouth and provided regular pulses of air (˜1 mL at 2 Hz). The ventilation was terminated after the mouse initiated gasping behavior or 20 s after the animal experienced sudden death.
Adrenergic receptor pharmacology. All chemicals were purchased from Sigma Aldrich and were either of pharmaceutical grade or were sterile filtered prior to injection. Injections were given intraperitoneal in a volume of 50-100 ul sterile saline per […] of mouse weight (e.g. 0.1 mL for a […] adult mouse). […] Injection of 50-100 ul sterile saline per […] of mouse weight was used as control.

DBA1 mice = conditions: intracerebroventricular injection (Zhao et al., 2017); cited from earlier work
[2] = system: maximal electroshock seizures; conditions: intracerebroventricular injection (Kruse et al., 2019); cited from earlier work
[3] = system: adult D/+ mice (Scn8a N1768D); assay: Audiogenic seizure survival in adult D/+ mice after adrenergic receptor inhibition; type: in vivo, mouse; conditions: 10 mg/kg sotalol i.p. 15 minutes prior to audiogenic seizure stimulation
Description: as §1, §2, §3
Mechanical ventilation. […]

Structure (SMILES): NC[C@H](O)c1ccc(O)c(O)c1 [NE, 4-[(1R)-2-amino-1-hydroxyethyl]benzene-1,2-diol]
- breathing recovery after tonic phase (plethysmography) ([1]; 2 mg/kg norepinephrine i.p. 1 minute prior): resulted in breathing recovery
- survival after audiogenic seizure (mice surviving of mice tested) ([1]; 2 mg/kg norepinephrine i.p. 1 minute prior to audiogenic seizure stimulation, saline 3 of 13, 2 mg/kg): 10 of 13 and significantly elevated rates of survival

Structure (SMILES): CNCC[C@@H](Oc1ccccc1C)c1ccccc1 [atomoxetine]
- prevention of death from audiogenic seizures (DBA1 mice): prevents death

Structure (SMILES): CNC[C@H](O)c1ccc(O)c(O)c1 [epinephrine]
- survival after audiogenic seizure (mice rescued of mice tested) ([1]; 2 mg/kg epinephrine i.p. 1 minute prior to audiogenic seizure stimulation, 2 mg/kg): one of the five; also recorded: did not seem to result in rescue

Structure (SMILES): CNC[C@H](O)c1cccc(O)c1 [phenylephrine, 3-[(1R)-1-hydroxy-2-(methylamino)ethyl]phenol]
- prevention of death from maximal electroshock seizures [2]: prevents death
- survival after audiogenic seizure (mice surviving of mice tested) ([1]; 3 mg/kg phenylephrine i.p. 1 minute prior to audiogenic seizure stimulation, 3 mg/kg): 7 out of 8 and rescued death
- survival after audiogenic seizure (mice surviving of mice tested) ([1]; 3 mg/kg phenylephrine i.p. 1 minute prior to audiogenic seizure stimulation, listed as PE, 3 mg/kg): significantly elevated rates of survival
- postictal breathing recovery (plethysmography) ([1]; 3 mg/kg): promoted postictal breathing recovery
- postictal breathing recovery (plethysmography) ([1]; listed as PE, 3 mg/kg): breathing also ceased during the tonic phase but recovered

Structure (SMILES): CC(C)NCC(O)c1ccc(NS(C)(=O)=O)cc1 (stereo not shown) [sotalol]
- survival after audiogenic seizure (mice surviving of mice tested) [3]: 12 out of 12 and had no affect on death rate
